# Test results published in article PMC12049818, “Identification of NUV-244 as a PNPLA3 I148M degrading small molecule” (iScience, 2025).
# Residue numbers refer to the chain shown, from its start.
# Key:
# PNPLA3 I148M = molecular target: T1, PNPLA3 I148M (Homo sapiens, UniProt Q9NST1, I148M); test: nanoDSF thermal shift, PNPLA3 I148M protein; assay type: binding; details: ligand 25 μM
# T1 sequence (Q9NST1 1-481 I148M): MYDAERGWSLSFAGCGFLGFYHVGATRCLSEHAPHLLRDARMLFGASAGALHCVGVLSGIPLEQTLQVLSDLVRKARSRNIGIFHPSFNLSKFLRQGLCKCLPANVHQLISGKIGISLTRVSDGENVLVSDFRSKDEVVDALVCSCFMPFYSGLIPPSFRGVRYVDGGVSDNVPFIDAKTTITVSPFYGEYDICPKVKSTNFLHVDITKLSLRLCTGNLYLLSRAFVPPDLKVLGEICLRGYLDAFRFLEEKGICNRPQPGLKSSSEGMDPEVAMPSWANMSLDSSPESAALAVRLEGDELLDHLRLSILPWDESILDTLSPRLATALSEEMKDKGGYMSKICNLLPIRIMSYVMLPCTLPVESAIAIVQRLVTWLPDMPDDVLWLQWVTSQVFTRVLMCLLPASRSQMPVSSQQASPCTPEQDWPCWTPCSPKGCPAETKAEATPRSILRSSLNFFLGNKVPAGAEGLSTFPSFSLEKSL
# From the text: (§1) To investigate the mode of action of NUV-244, we evaluated its direct binding to the PNPLA3 I148M protein using nano differential scanning fluorimetry (nanoDSF). In this assay, compounds that bind to a target protein can lead to thermal stabilization, preventing protein denaturation, which is reflected in a shift of the protein melting curve.
# (§2) Full-length wild-type PNPLA3 (Q9NST1), mutant PNPLA3 (I148M), and PNPLA2 (Q96AD5) were cloned into the pVL1393 vector with an N-terminal Flag-Tag. Proteins were expressed in SF9 cells infected at a multiplicity of infection (MOI) of 1 for 72 hours. Protein purification was performed using a two-step process. The first step involved affinity purification using M2 anti-Flag agarose beads. This was followed by gel filtration chromatography using a Superdex 200 column. Thermal melting experiments were carried out using a Prometheus NT.48 instrument (NanoTemper Technologies). Proteins were prepared in 20 mM Tris-HCl pH 7.4, 100 mM NaCl, 5 % Glycerol, 2 mM DTT and 0.2 mg/mL was used as a final concentration in 50 μL volume. For binding experiments, ligands were added to the mixture at a final concentration of 25 μM, DMSO was used as control. […] The intrinsic protein fluorescence at 330 and 350 nm was recorded. Data were analysed using Prometheus NT.48 software. Thermal shifts (ΔTm) were calculated, and Z-scores greater than 6 indicated robust stabilization. […]
# PNPLA3 = molecular target: T2, PNPLA3 (Homo sapiens, UniProt Q9NST1); test: Huh7 untagged PNPLA3 immunofluorescence on lipid droplets; assay type: cell-based; details: anti-PNPLA3 IF; representative curve, Figure 3E
# T2 construct: host or cells: Huh7
# T2 sequence (Q9NST1 1-481): T1 sequence (Q9NST1 1-481 I148M) with M148I
# Protocol: Even though C-terminal tagging is reported not to interfere with PNPLA3 localization,[20] we established an assay to exclude the possibility that C-terminal tagging of PNPLA3 with tagRFP could alter PNPLA3 response to NUV-244 on lipid droplets. For this we generated Huh7 cell lines that express untagged variants of PNPLA3 I148M or PNPLA3 WT and visualized PNPLA3 on lipid droplets by immunofluorescence (Figures 3C, 3D, and S3A).
# Cells were fixed with 4% paraformaldehyde for 15 minutes at room temperature. Cells were blocked with 0.2 M glycine, 0.1 mg/mL saponin, and 30 mg/mL bovine serum albumin (BSA) (all Sigma Aldrich) in PBS for 1 hour. Cells were washed 1x with washing buffer (0,1 mg/ml saponin + 1 mg/ml Bovine serum albumin) using a Blue Washer (Blue Cat Bio). Mouse anti-human ADPN (PNPLA3, C-8, #sc-390252, Santa Cruz) and rabbit anti-human PNPLA2 (Sigma Aldrich, #HPA055173-25UL) primary antibodies and appropriate secondary antibodies conjugated with Alexa-Fluor 647 (Jackson ImmunoResearch) were used. […]
# Images were acquired by an Opera Phenix confocal spinning disc microscope system (Revvity, Waltham, MA, USA) with a 20x or 40x water objective at 405 nm (Hoechst), 488 nm (BODIPY) and 647 nm. Quantification was carried out with the Harmony (Revvity, Waltham, MA, USA) or MetaXpress software (Molecular Devices). […]
# PNPLA3 WT = molecular target: T3, PNPLA3 WT (Homo sapiens, UniProt Q9NST1); test: nanoDSF thermal shift, PNPLA3 WT protein; assay type: binding; details: ligand 25 μM
# T3 construct: Full-length wild-type PNPLA3 (Q9NST1), mutant PNPLA3 (I148M), and PNPLA2 (Q96AD5) were cloned into the pVL1393 vector; Flag (N); made in house; host or cells: SF9 insect cells (baculovirus, pVL1393)
# T3 sequence (Q9NST1 1-481): T1 sequence (Q9NST1 1-481 I148M) with M148I
# From the text: as §1, §2
structure (smiles),measurement,setting,value
Cc1cccc(Cc2nc(C)c(C(=O)Nc3cc(O)ccc3Cl)s2)c1 [NUV-244],ΔTm PNPLA3 I148M,PNPLA3 I148M,5.82 °C
same,EC50,PNPLA3,341 nM
same,ΔTm PNPLA3 WT,PNPLA3 WT,7.02 °C
